System: MV-4-11 cells
Experiment: Gene expression microarray analysis (Affymetrix PrimeView) and GSEA
Format: cell-based, human
Set-up: RFU PODN (11730768_x_at) / Fold change /veh PODN (11730768_x_at) / RFU LINC00158 (11744669_a_at) / Fold change /veh LINC00158 (11744669_a_at) / RFU DUSP10 (11751237_a_at) / Fold change /veh DUSP10 (11751237_a_at) / RFU ID3 (11757404_x_at) / Fold change /veh ID3 (11757404_x_at) / RFU PLEKHG5 (11737974_s_at) / Fold change /veh PLEKHG5 (11737974_s_at) / RFU LRRC4B (11730491_at) / Fold change /veh LRRC4B (11730491_at) / RFU GIMAP4 (11747438_a_at) / Fold change /veh GIMAP4 (11747438_a_at) / RFU KRT8 (11758183_x_at) / Fold change /veh KRT8 (11758183_x_at) / RFU CNN1 (11734310_a_at) / Fold change /veh CNN1 (11734310_a_at) / RFU VPS37D (11726825_at) / Fold change /veh VPS37D (11726825_at) / RFU C10orf10 (11716522_x_at) / Fold change /veh C10orf10 (11716522_x_at) / RFU KIR2DL2 /// KIR2DL4 /// KIR2DL5A /// KIR2DL5B /// KIR2DS1 /// KIR2DS2 /// KIR2DS3 /// KIR2DS4 /// KIR3DL3 /// KIR3DL3 /// KIR3DS1 (11738374_at) / Fold change /veh KIR2DL2 /// KIR2DL4 /// KIR2DL5A /// KIR2DL5B /// KIR2DS1 /// KIR2DS2 /// KIR2DS3 /// KIR2DS4 /// KIR3DL3 /// KIR3DL3 /// KIR3DS1 (11738374_at) / RFU C1QL1 (11718748_at) / Fold change /veh C1QL1 (11718748_at) / RFU TMPRSS4 (11747572_a_at) / Fold change /veh TMPRSS4 (11747572_a_at) / RFU HAMP (11756126_x_at) / Fold change /veh HAMP (11756126_x_at) / RFU RNFT2 (11725882_a_at) / Fold change /veh RNFT2 (11725882_a_at) / RFU NR4A2 (11747474_a_at) / Fold change /veh NR4A2 (11747474_a_at) / RFU ABCC12 (11746883_a_at) / Fold change /veh ABCC12 (11746883_a_at) / RFU TMEM136 (11760407_x_at) / Fold change /veh TMEM136 (11760407_x_at) / RFU CLDN22 /// WWC2 (11732394_at) / Fold change /veh CLDN22 /// WWC2 (11732394_at) / RFU HLA-DPB1 (11760878_x_at) / Fold change /veh HLA-DPB1 (11760878_x_at) / RFU SPINT1 (11716480_a_at) / Fold change /veh SPINT1 (11716480_a_at) / RFU GAP43 (11754022_s_at) / Fold change /veh GAP43 (11754022_s_at) / RFU A4GNT (11735810_at) / Fold change /veh A4GNT (11735810_at) / RFU PRB3 (11715151_x_at) / Fold change /veh PRB3 (11715151_x_at) / RFU TUBB4B (11761932_at) / Fold change /veh TUBB4B (11761932_at) / RFU CAPN14 (11732068_a_at) / Fold change /veh CAPN14 (11732068_a_at) / RFU TMCC2 (11721928_a_at) / Fold change /veh TMCC2 (11721928_a_at) / RFU IRGQ (11745062_a_at) / Fold change /veh IRGQ (11745062_a_at) / RFU FAM174B (11720279_a_at) / Fold change /veh FAM174B (11720279_a_at) / RFU TMPRSS4 (11748680_a_at) / Fold change /veh TMPRSS4 (11748680_a_at) / RFU FAM212B (11763350_a_at) / Fold change /veh FAM212B (11763350_a_at) / RFU PLEKHG5 (11743358_a_at) / Fold change /veh PLEKHG5 (11743358_a_at) / RFU ZSCAN30 (11745921_a_at) / Fold change /veh ZSCAN30 (11745921_a_at) / RFU CMKLR1 (11741424_a_at) / Fold change /veh CMKLR1 (11741424_a_at) / RFU LOC101060620 /// MAPK8IP1 (11723275_at) / Fold change /veh LOC101060620 /// MAPK8IP1 (11723275_at) / RFU SPTSSB (11747773_x_at) / Fold change /veh SPTSSB (11747773_x_at) / RFU PRSS12 (11739890_at) / Fold change /veh PRSS12 (11739890_at) / RFU BIN1 (11741810_x_at) / Fold change /veh BIN1 (11741810_x_at) / RFU WNT11 (11732464_a_at) / Fold change /veh WNT11 (11732464_a_at) / RFU C10orf10 (11716521_a_at) / Fold change /veh C10orf10 (11716521_a_at) / RFU C5orf56 (11738089_at) / Fold change /veh C5orf56 (11738089_at) / RFU CYB561 (11721691_x_at) / Fold change /veh CYB561 (11721691_x_at) / RFU ANKRD19P (11752326_a_at) / Fold change /veh ANKRD19P (11752326_a_at) / RFU OR2T12 /// OR2T33 /// OR2T8 (11738714_s_at) / Fold change /veh OR2T12 /// OR2T33 /// OR2T8 (11738714_s_at) / RFU VCAN (11748164_a_at) / Fold change /veh VCAN (11748164_a_at) / RFU JSRP1 (11732532_at) / Fold change /veh JSRP1 (11732532_at) / RFU KRTAP10-11 (11738290_x_at) / Fold change /veh KRTAP10-11 (11738290_x_at) / RFU MYO3A (11730013_a_at) / Fold change /veh MYO3A (11730013_a_at) / RFU EBF3 (11725865_a_at) / Fold change /veh EBF3 (11725865_a_at) / RFU CAMK2N1 (11719241_x_at) / Fold change /veh CAMK2N1 (11719241_x_at) / RFU C5orf56 (11738088_a_at) / Fold change /veh C5orf56 (11738088_a_at) / RFU OLFML3 (11715873_a_at) / Fold change /veh OLFML3 (11715873_a_at) / RFU LOC100653217 /// NTM (11731650_a_at) / Fold change /veh LOC100653217 /// NTM (11731650_a_at) / RFU MAPK11 (11762145_a_at) / Fold change /veh MAPK11 (11762145_a_at) / RFU FIZ1 (11724087_x_at) / Fold change /veh FIZ1 (11724087_x_at) / RFU OASL (11726364_x_at) / Fold change /veh OASL (11726364_x_at) / RFU SOX15 (11748057_x_at) / Fold change /veh SOX15 (11748057_x_at) / RFU CD79A (11719716_a_at) / Fold change /veh CD79A (11719716_a_at) / RFU HIST1H1D (11736915_at) / Fold change /veh HIST1H1D (11736915_at) / RFU CASKIN2 (11723855_a_at) / Fold change /veh CASKIN2 (11723855_a_at) / RFU LOC730098 (11760151_x_at) / Fold change /veh LOC730098 (11760151_x_at) / RFU OR4N2 (11742367_at) / Fold change /veh OR4N2 (11742367_at) / RFU PRRT2 (11749266_a_at) / Fold change /veh PRRT2 (11749266_a_at) / RFU SNX32 (11753110_a_at) / Fold change /veh SNX32 (11753110_a_at) / RFU CDHR5 (11726645_a_at) / Fold change /veh CDHR5 (11726645_a_at) / RFU RCAN1 (11760418_a_at) / Fold change /veh RCAN1 (11760418_a_at) / RFU FAM167A (11723789_a_at) / Fold change /veh FAM167A (11723789_a_at) / RFU FAM26E (11764081_at) / Fold change /veh FAM26E (11764081_at) / RFU ISYNA1 (11749810_s_at) / Fold change /veh ISYNA1 (11749810_s_at) / RFU ACY1 (11761880_at) / Fold change /veh ACY1 (11761880_at) / RFU 11764098_at / Fold change /veh 11764098_at / RFU SAMD14 (11745864_x_at) / Fold change /veh SAMD14 (11745864_x_at) / RFU NPB (11741838_a_at) / Fold change /veh NPB (11741838_a_at) / RFU TMPRSS6 (11731388_a_at) / Fold change /veh TMPRSS6 (11731388_a_at) / RFU KRTAP10-2 (11738614_at) / Fold change /veh KRTAP10-2 (11738614_at) / RFU ARHGAP8 /// PRR5-ARHGAP8 (11727945_x_at) / Fold change /veh ARHGAP8 /// PRR5-ARHGAP8 (11727945_x_at) / RFU KRTAP5-7 /// NADSYN1 (11734609_at) / Fold change /veh KRTAP5-7 /// NADSYN1 (11734609_at) / RFU RASL12 (11751679_a_at) / Fold change /veh RASL12 (11751679_a_at) / RFU CDKN2B (11736163_a_at) / Fold change /veh CDKN2B (11736163_a_at) / RFU PRF1 (11729649_at) / Fold change /veh PRF1 (11729649_at) / RFU, ZNF638 /// ZNF638-IT1 / Fold change vs veh, ZNF638 /// ZNF638-IT1 / RFU, PANK3 / Fold change vs veh, PANK3 / RFU, SH3YL1 / Fold change vs veh, SH3YL1 / RFU, ZEB2 / Fold change vs veh, ZEB2 / RFU, NRIP1 / Fold change vs veh, NRIP1 / RFU, PTTG1IP / Fold change vs veh, PTTG1IP / RFU, CAPN2 / Fold change vs veh, CAPN2 / RFU, MED14 / Fold change vs veh, MED14 / RFU, SNORA58 / Fold change vs veh, SNORA58 / RFU, C1orf63 / Fold change vs veh, C1orf63 / RFU, LRRFIP1 / Fold change vs veh, LRRFIP1 / RFU, NDUFAF7 / Fold change vs veh, NDUFAF7 / RFU, SLC12A2 / Fold change vs veh, SLC12A2 / RFU, IBTK / Fold change vs veh, IBTK / RFU, ESF1 / Fold change vs veh, ESF1 / Fold change vs veh, TMEM50B / RFU, TAOK1 / Fold change vs veh, TAOK1 / RFU, ACBD3 / Fold change vs veh, ACBD3 / RFU, TMA16 / Fold change vs veh, TMA16 / RFU, RWDD3 / Fold change vs veh, RWDD3 / RFU, BCAT1 / Fold change vs veh, BCAT1 / RFU, EDEM3 / Fold change vs veh, EDEM3 / RFU, TMEM33 / Fold change vs veh, TMEM33 / RFU, WDR75 / Fold change vs veh, WDR75 / RFU, AHCTF1 / Fold change vs veh, AHCTF1 / RFU, TFRC / Fold change vs veh, TFRC / RFU, ZDHHC17 / Fold change vs veh, ZDHHC17 / RFU, NOM1 / Fold change vs veh, NOM1 / RFU, ARL8B / Fold change vs veh, ARL8B / RFU, ZBTB11 / Fold change vs veh, ZBTB11 / RFU, TAMM41 / Fold change vs veh, TAMM41 / RFU, KIAA1704 /// LOC100996395 / Fold change vs veh, KIAA1704 /// LOC100996395 / RFU, ING1 / Fold change vs veh, ING1 / RFU, TRMT61B / Fold change vs veh, TRMT61B / RFU, FUBP3 / Fold change vs veh, FUBP3 / RFU, TP53 / Fold change vs veh, TP53 / RFU, TNKS2 / Fold change vs veh, TNKS2 / RFU, ZFP14 / Fold change vs veh, ZFP14 / RFU, ACTR2 / Fold change vs veh, ACTR2 / RFU, PPP3R1 / Fold change vs veh, PPP3R1 / RFU, PIK3R1 / Fold change vs veh, PIK3R1 / RFU, HNRNPA1 / Fold change vs veh, HNRNPA1 / RFU, RNF170 / Fold change vs veh, RNF170 / RFU, ZNF28 / Fold change vs veh, ZNF28 / RFU, RNGTT / Fold change vs veh, RNGTT / RFU, OGT / Fold change vs veh, OGT / RFU, BRD1 / Fold change vs veh, BRD1 / RFU, MARS / Fold change vs veh, MARS / RFU, ZNF655 / Fold change vs veh, ZNF655 / RFU, FAHD1 / Fold change vs veh, FAHD1 / RFU, BDP1 / Fold change vs veh, BDP1 / RFU, LRRCC1 / Fold change vs veh, LRRCC1 / RFU, ARID1A / Fold change vs veh, ARID1A / RFU, ZNF146 / Fold change vs veh, ZNF146 / RFU, ZNF330 / Fold change vs veh, ZNF330 / RFU, GPN3 / Fold change vs veh, GPN3 / RFU, C9orf123 / Fold change vs veh, C9orf123 / RFU, N4BP2L2 / Fold change vs veh, N4BP2L2 / RFU, ARFIP1 / Fold change vs veh, ARFIP1 / RFU, FAM179B / Fold change vs veh, FAM179B / RFU, BCL10 / Fold change vs veh, BCL10 / RFU, UHRF1BP1L / Fold change vs veh, UHRF1BP1L / RFU, BET1 / Fold change vs veh, BET1 / RFU, CNOT2 / Fold change vs veh, CNOT2 / RFU, ZNF268 / Fold change vs veh, ZNF268 / Fold change vs veh, ZNF507 / RFU, DGCR2 / Fold change vs veh, DGCR2 / RFU, WDSUB1 / Fold change vs veh, WDSUB1 / Fold change vs veh, HSP90B1 /// MIR3652 / RFU, ADSS / Fold change vs veh, ADSS / RFU, GK / Fold change vs veh, GK / RFU, ZNF148 / Fold change vs veh, ZNF148 / RFU, TAF9 / Fold change vs veh, TAF9 / RFU, SLC1A5 / Fold change vs veh, SLC1A5 / RFU, SLMO2 / Fold change vs veh, SLMO2 / RFU, ABCC4 / Fold change vs veh, ABCC4 / RFU, LOC101060439 /// RAP1B / Fold change vs veh, LOC101060439 /// RAP1B / RFU, RFX7 / Fold change vs veh, RFX7 / RFU, GTPBP10 / Fold change vs veh, GTPBP10 / RFU, CNEP1R1 / Fold change vs veh, CNEP1R1 / RFU, BIVM-ERCC5 /// ERCC5 / Fold change vs veh, BIVM-ERCC5 /// ERCC5 / RFU, ILF3 / Fold change vs veh, ILF3 / RFU 11762660_at / Fold change /veh 11762660_at / RFU VCAN (11757783_s_at) / Fold change /veh VCAN (11757783_s_at) / RFU DDX43 (11728927_at) / Fold change /veh DDX43 (11728927_at) / RFU KRT8 (11758188_x_at) / Fold change /veh KRT8 (11758188_x_at) / RFU NKD1 (11759106_at) / Fold change /veh NKD1 (11759106_at) / RFU SRD5A1 (11742802_a_at) / Fold change /veh SRD5A1 (11742802_a_at) / RFU TPSAB1 /// TPSB2 (11721975_s_at) / Fold change /veh TPSAB1 /// TPSB2 (11721975_s_at) / RFU GSTM3 (11746129_a_at) / Fold change /veh GSTM3 (11746129_a_at) / RFU IL23R (11737362_x_at) / Fold change /veh IL23R (11737362_x_at) / RFU TMEM51 (11727254_a_at) / Fold change /veh TMEM51 (11727254_a_at) / RFU PIWIL2 (11732686_x_at) / Fold change /veh PIWIL2 (11732686_x_at) / RFU ORM1 (11744905_x_at) / Fold change /veh ORM1 (11744905_x_at) / RFU CCDC152 (11743942_at) / Fold change /veh CCDC152 (11743942_at) / RFU ECM1 (11717891_a_at) / Fold change /veh ECM1 (11717891_a_at) / RFU IL23R (11748794_a_at) / Fold change /veh IL23R (11748794_a_at) / RFU TNFAIP8L3 (11732012_x_at) / Fold change /veh TNFAIP8L3 (11732012_x_at) / RFU MBOAT4 (11741988_at) / Fold change /veh MBOAT4 (11741988_at) / RFU 11764193_at / Fold change /veh 11764193_at / RFU TMEM53 (11763286_at) / Fold change /veh TMEM53 (11763286_at) / RFU MAGEB2 (11727129_at) / Fold change /veh MAGEB2 (11727129_at) / RFU TMEM200A (11744735_a_at) / Fold change /veh TMEM200A (11744735_a_at) / RFU CCDC152 (11751479_a_at) / Fold change /veh CCDC152 (11751479_a_at) / RFU FAM211A (11726209_a_at) / Fold change /veh FAM211A (11726209_a_at) / RFU RGS16 (11746705_a_at) / Fold change /veh RGS16 (11746705_a_at) / RFU VCAN (11755009_s_at) / Fold change /veh VCAN (11755009_s_at) / RFU RHOB (11743442_s_at) / Fold change /veh RHOB (11743442_s_at) / RFU RGS16 (11720943_a_at) / Fold change /veh RGS16 (11720943_a_at) / RFU RGS16 (11720944_at) / Fold change /veh RGS16 (11720944_at) / RFU, VPS4B / Fold change vs veh, VPS4B / RFU, CREB1 / Fold change vs veh, CREB1 / RFU, DNAJC13 / Fold change vs veh, DNAJC13 / RFU, GNAQ / Fold change vs veh, GNAQ / RFU, CDK5R1 / Fold change vs veh, CDK5R1 / RFU, ZRANB3 / Fold change vs veh, ZRANB3 / RFU, CUL4A / Fold change vs veh, CUL4A / RFU, CCNY / Fold change vs veh, CCNY / RFU, UFL1 / Fold change vs veh, UFL1 / RFU, COG3 / Fold change vs veh, COG3 / RFU, DIAPH2 / Fold change vs veh, DIAPH2 / RFU, SKA2 / Fold change vs veh, SKA2 / RFU, AFF3 / Fold change vs veh, AFF3 / RFU, LMF1 / Fold change vs veh, LMF1 / RFU, IPO11 / Fold change vs veh, IPO11 / RFU, DFFB / Fold change vs veh, DFFB / RFU, FOXP1 / Fold change vs veh, FOXP1 / RFU, CARD8 / Fold change vs veh, CARD8 / RFU, STRN3 / Fold change vs veh, STRN3 / RFU, ADK / Fold change vs veh, ADK / RFU, RASSF2 / Fold change vs veh, RASSF2 / RFU, WIPF1 / Fold change vs veh, WIPF1 / RFU, LARP1B / Fold change vs veh, LARP1B / RFU, RASA1 / Fold change vs veh, RASA1 / RFU, RB1 / Fold change vs veh, RB1 / RFU, PPFIA1 / Fold change vs veh, PPFIA1 / RFU, MAT2A / Fold change vs veh, MAT2A / RFU, CCT5 / Fold change vs veh, CCT5 / RFU, WDR92 / Fold change vs veh, WDR92 / RFU, CUX1 / Fold change vs veh, CUX1 / RFU, TTC7A / Fold change vs veh, TTC7A / RFU, TMEM135 / Fold change vs veh, TMEM135 / RFU, DEPTOR / Fold change vs veh, DEPTOR / RFU, CPM / Fold change vs veh, CPM / RFU, DNAJB6 / Fold change vs veh, DNAJB6 / RFU, CACNA2D3 / Fold change vs veh, CACNA2D3 / RFU, DTX4 / Fold change vs veh, DTX4 / RFU, TFCP2 / Fold change vs veh, TFCP2 / RFU, GMCL1 /// GMCL1P1 / Fold change vs veh, GMCL1 /// GMCL1P1 / RFU, AEBP2 / Fold change vs veh, AEBP2 / RFU, SNHG1 /// SNORD22 /// SNORD25 /// SNORD26 /// SNORD27 /// SNORD28 /// SNORD29 /// SNORD31 / Fold change vs veh, SNHG1 /// SNORD22 /// SNORD25 /// SNORD26 /// SNORD27 /// SNORD28 /// SNORD29 /// SNORD31 / Fold change (Aza/veh), C12orf56 (ProbeSet 11735607_a_at) / Fold change (ACY-1035/veh), C12orf56 (ProbeSet 11735607_a_at) / Fold change (Aza/veh), FGFR1OP (ProbeSet 11751329_s_at) / Fold change (ACY-1035/veh), FGFR1OP (ProbeSet 11751329_s_at) / Fold change (Aza/veh), VPS36 (ProbeSet 11739960_a_at) / Fold change (ACY-1035/veh), VPS36 (ProbeSet 11739960_a_at) / RFU SYPL1 (11715823_x_at) / Fold change /veh SYPL1 (11715823_x_at) / RFU IGFBP7 (11715501_s_at) / Fold change /veh IGFBP7 (11715501_s_at) / RFU REEP3 (11722064_at) / Fold change /veh REEP3 (11722064_at) / RFU IGLL1 (11728026_x_at) / Fold change /veh IGLL1 (11728026_x_at): dose or concentration left out as unconfirmed
Conditions: ProbeSet 11740011_at; LIST B

For `Nc1ncn([C@@H]2O[C@H](CO)[C@@H](O)[C@H]2O)c(=O)n1` [azacitidine], the “RFU, ZFP14” value was 67.74 RFU.
